According to patent publication US11802129B1, “Pyrido[3,4-b]indol-1-one compounds as anticancer agents” (KING FAISAL UNIVERSITY, priority 2023, dated 2023):

What was measured:
PC3 (prostate) = experiment: In vitro cytotoxic activity (MTT) assay, PC3; type: cell-based; conditions: Prostate cell; Human PC3 (prostate) cells, exposed for 96 hours
Protocol: (§1) Compounds 1-10 were screened for their in vitro cytotoxic activity utilizing a 3-(4,5-dimethyl-thiazol-2-yl)-2,5-diphenyltetrazolium bromide (MTT) assay against selected cancer murine and human cancer cell lines (T. Mosmann, J. Immunol. Meth., 1983, 65, 55-63). The cells were cultured at 37° C. in RMPI1640 medium supplemented with 10% fetal bovine serum, 50 IU/mL penicillin, and 50 μg/mL streptomycin in a 5% CO2 incubator. All cells were sub-cultured 3 times/week by trypsinisation. Viable cells were seeded and allowed to adhere for 12 h before a test drug was added in 96-well plates at an initial density of 1.0×10^5 cells/mL. Tumour cell lines were separately exposed to various concentrations of the tested compounds followed by incubation at a temperature of 37° C. during 4 days inside a medium of fresh RMPI 1640. Cells were subsequently incubated at 37° C. using MTT at 0.5 mg/mL during 4 h. After removal of supernatant, formazan crystals were dissolved in isopropanol and the optical density was measured at 570 nm. CX-4945 has been used as a positive control.

HL60 (leukemia) = experiment: In vitro cytotoxic activity (MTT) assay, HL60; type: cell-based; conditions: HL-60; Human HL60 (leukemia) cells, exposed for 96 hours
Protocol: as §1

A375 (melanoma) = experiment: In vitro cytotoxic activity (MTT) assay, A375; type: cell-based; conditions: A-375; Human A375 (melanoma) cells, exposed for 96 hours
Protocol: as §1

B16 melanoma = experiment: In vitro cytotoxic activity (MTT) assay, B16 melanoma; type: cell-based; conditions: Mus musculus; Murine B16 melanoma cells, exposed for 96 hours
Protocol: as §1

MIAPaCa-2 (pancreas) = experiment: In vitro cytotoxic activity (MTT) assay, MIAPaCa-2; type: cell-based; conditions: MIA PaCa-2; Human MIAPaCa-2 (pancreas) cells, exposed for 96 hours
Protocol: as §1

MDA-MB-231 (breast) = experiment: In vitro cytotoxic activity (MTT) assay, MDA-MB-231; type: cell-based; conditions: Human MDA-MB-231 (breast) cells, exposed for 96 hours
Protocol: as §1

H1299 (lung) = experiment: In vitro cytotoxic activity (MTT) assay, H1299; type: cell-based; conditions: NCI-H1299; Human H1299 (lung) cells, exposed for 96 hours
Protocol: as §1

Leukemia P388 = experiment: In vitro cytotoxic activity (MTT) assay, Leukemia P388; type: cell-based; conditions: Mus musculus; Murine Leukemia P388 cells, exposed for 96 hours
Protocol: as §1

HCT116 (colon) = experiment: In vitro cytotoxic activity (MTT) assay, HCT116; type: cell-based; conditions: HCT-116; Human HCT116 (colon) cells, exposed for 96 hours
Protocol: as §1

MCF7 (breast) = experiment: In vitro cytotoxic activity (MTT) assay, MCF7; type: cell-based; conditions: Human MCF7 (breast) cells, exposed for 96 hours
Protocol: as §1

Colon C38 adenocarcinoma = experiment: In vitro cytotoxic activity (MTT) assay, Colon C38 adenocarcinoma; type: cell-based; conditions: Mus musculus; Murine Colon C38 adenocarcinoma cells, exposed for 96 hours
Protocol: as §1

CK2 = biological target: T1, CK2 (Homo sapiens, UniProt P68400); experiment: In vitro CK2 inhibitory assay (CK2 assay kit); type: biochemical; conditions: CK2 assay kit (Upstate Biotechnology)
T1 construct: purchased Upstate Biotechnology, Lake Placid, NY, USA
Protocol: CK2 activity was assessed by using a CK2 assay kit (Upstate Biotechnology, Lake Placid, NY, USA) according to the manufacturer's instructions [T. Tiganis, C. M. House, B. E. Kemp, Arch. Biochem. Biophys. 1996,325, 289-294].

T1 sequence (P68400 whole entry): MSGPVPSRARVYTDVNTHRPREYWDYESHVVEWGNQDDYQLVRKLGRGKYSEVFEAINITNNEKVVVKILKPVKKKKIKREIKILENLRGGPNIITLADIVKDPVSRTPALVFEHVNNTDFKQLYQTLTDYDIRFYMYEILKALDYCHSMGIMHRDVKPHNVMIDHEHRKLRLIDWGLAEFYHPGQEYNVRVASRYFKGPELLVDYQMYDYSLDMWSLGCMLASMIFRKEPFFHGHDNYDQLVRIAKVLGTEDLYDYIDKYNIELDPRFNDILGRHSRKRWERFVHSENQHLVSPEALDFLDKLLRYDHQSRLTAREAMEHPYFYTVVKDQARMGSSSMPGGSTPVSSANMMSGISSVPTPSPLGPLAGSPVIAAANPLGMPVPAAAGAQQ

Work on `O=C(O)c1ccc2[nH]c3c(=O)[nH]cc(Nc4cccc(Cl)c4)c3c2c1` [Example 3, 4-((3-chlorophenyl)amino)-1-oxo-2,9-dihydro-1H-pyrido[3,4-b]indole-6-carboxylic acid] yielded an IC50 (PC3 (prostate)) of 2.6 µM, an IC50 (HL60 (leukemia)) of 6.3 µM and an IC50 (A375 (melanoma)) of 4.4 µM. For the same compound, the IC50 (B16 melanoma) was 6.8 µM, the IC50 (MIAPaCa-2 (pancreas)) was 5.7 µM and the IC50 (MDA-MB-231 (breast)) was 6.6 µM. For the same compound, the IC50 (H1299 (lung)) was 2.1 µM, the IC50 (Leukemia P388) was 5.5 µM and the IC50 (HCT116 (colon)) was 3.3 µM. The IC50 (MCF7 (breast)) was 7.5 µM, the IC50 (Colon C38 adenocarcinoma) was 4.4 µM and the IC50 (CK2) was 0.005 µM.
